# Laboratory results from ChEMBL document CHEMBL1201862, “PubChem BioAssay data set” (2004).
# Activity calls are given as the source filed them.
# Experiments:
# [1] = Luminescence Cell-Based Dose Retest to Confirm Inhibitors of Cancer Stem Cells. [Related pubchem assays (depositor defined):AID2717, AID2721]; type: functional; settings: Homo sapiens
# [2] = toxicity toward HepG2 liver cells – cell-based, plate reader, cherry-pick, antagonist series, cytotoxicity control, dose response (AID 743416); type: functional
# [3] = A Cell Based Secondary Assay To Explore Cytotoxicity of Compounds that Sensitize Mycobacterium Tuberculosis to Beta-Lactam Antibiotics.; type: functional
# [4] = blockade of melanocortin 4 receptor signaling – cell-based, plate reader, cherry pick, counter-screen for LGR2 antagonist project, dose response (AID 743444); type: functional;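 also: transfected HEK 293 cells stimulated with alpha-MSH peptide; potency of inhibitors of the alpha-MSH evoked signal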
# [5] = viability loss in HEK293 cells – cell-based, plate reader, cherry-picked samples, cytotoxicity control, dose response (AID 743446); type: functional
# [6] = blockers of bursicon-stimulated LGR2 cAMP reporter – cell-based, HEK293, CRE-luciferase reporter, cherry pick, set 2, dose response (AID 743343); type: functional;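 also: transfected cells were stimulated with diluted bursicon conditioned medium after compound addition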
# [7] = A549 cell cytotoxicity, dose response, cytotoxicity control, plate reader, cherry-pick, antagonist series (AID 743412); type: functional, cell-based
# [8] = target: T1, DNA repair protein RAD52 homolog (Homo sapiens, UniProt P43351); type: functional, biochemical
# T1 sequence (P43351 whole entry): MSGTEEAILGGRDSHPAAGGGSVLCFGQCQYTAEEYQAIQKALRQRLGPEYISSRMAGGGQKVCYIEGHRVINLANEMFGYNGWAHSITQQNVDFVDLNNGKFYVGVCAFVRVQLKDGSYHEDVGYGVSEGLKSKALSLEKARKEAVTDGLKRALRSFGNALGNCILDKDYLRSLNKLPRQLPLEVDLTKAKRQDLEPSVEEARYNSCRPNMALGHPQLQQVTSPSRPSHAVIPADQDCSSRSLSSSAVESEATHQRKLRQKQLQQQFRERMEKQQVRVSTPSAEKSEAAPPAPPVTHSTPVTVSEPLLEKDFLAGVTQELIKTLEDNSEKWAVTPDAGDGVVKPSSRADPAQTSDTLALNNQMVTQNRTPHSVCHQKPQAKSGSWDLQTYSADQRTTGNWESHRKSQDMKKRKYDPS
# [9] = target: T2, DNA repair and recombination protein RAD54-like (Homo sapiens, UniProt Q92698); test: RAD54 Holliday junction migration blockers – biochemical, fluorescence, cherry-picked samples, dose series, confirmation (AID 651657); type: functional
# T2 sequence (Q92698 whole entry): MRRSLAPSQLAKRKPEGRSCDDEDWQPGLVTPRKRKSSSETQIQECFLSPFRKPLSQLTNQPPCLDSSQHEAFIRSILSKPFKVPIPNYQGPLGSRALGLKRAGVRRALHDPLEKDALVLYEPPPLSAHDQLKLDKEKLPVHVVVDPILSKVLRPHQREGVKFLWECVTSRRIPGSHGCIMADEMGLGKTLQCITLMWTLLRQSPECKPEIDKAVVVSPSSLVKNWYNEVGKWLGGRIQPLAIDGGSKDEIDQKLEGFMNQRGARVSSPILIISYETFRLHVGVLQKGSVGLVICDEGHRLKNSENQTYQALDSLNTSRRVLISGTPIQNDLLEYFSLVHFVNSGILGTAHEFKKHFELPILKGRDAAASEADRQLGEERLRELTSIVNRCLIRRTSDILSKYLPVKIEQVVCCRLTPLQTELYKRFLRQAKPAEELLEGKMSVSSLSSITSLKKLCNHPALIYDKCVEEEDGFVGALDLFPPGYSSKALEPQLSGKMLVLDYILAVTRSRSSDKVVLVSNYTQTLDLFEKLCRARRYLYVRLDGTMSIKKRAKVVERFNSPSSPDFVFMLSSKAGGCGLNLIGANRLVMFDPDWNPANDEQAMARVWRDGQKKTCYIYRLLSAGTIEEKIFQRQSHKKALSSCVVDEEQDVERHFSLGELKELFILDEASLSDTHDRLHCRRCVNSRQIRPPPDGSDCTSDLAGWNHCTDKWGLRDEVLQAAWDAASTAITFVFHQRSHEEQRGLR
# [10] = A cytotoxicity screen of small molecule inhibitors of the PhoP region in Salmonella typhi identified in the primary screen. [Related pubchem assays: 1850, 1864, 1985 ]; type: functional
# Escherichia coli = test: microbe, parasite or virus in culture
# [11] = target: T3, Short transient receptor potential channel 4 (Mus musculus, UniProt Q9QUQ5); test: calcium entry via TRPC4 opening agents – cell-based, HEK293 TRPC4/mu-opioid, Fluo-4 calcium, dose response (AID 434937); type: functional
# T3 sequence (Q9QUQ5 whole entry): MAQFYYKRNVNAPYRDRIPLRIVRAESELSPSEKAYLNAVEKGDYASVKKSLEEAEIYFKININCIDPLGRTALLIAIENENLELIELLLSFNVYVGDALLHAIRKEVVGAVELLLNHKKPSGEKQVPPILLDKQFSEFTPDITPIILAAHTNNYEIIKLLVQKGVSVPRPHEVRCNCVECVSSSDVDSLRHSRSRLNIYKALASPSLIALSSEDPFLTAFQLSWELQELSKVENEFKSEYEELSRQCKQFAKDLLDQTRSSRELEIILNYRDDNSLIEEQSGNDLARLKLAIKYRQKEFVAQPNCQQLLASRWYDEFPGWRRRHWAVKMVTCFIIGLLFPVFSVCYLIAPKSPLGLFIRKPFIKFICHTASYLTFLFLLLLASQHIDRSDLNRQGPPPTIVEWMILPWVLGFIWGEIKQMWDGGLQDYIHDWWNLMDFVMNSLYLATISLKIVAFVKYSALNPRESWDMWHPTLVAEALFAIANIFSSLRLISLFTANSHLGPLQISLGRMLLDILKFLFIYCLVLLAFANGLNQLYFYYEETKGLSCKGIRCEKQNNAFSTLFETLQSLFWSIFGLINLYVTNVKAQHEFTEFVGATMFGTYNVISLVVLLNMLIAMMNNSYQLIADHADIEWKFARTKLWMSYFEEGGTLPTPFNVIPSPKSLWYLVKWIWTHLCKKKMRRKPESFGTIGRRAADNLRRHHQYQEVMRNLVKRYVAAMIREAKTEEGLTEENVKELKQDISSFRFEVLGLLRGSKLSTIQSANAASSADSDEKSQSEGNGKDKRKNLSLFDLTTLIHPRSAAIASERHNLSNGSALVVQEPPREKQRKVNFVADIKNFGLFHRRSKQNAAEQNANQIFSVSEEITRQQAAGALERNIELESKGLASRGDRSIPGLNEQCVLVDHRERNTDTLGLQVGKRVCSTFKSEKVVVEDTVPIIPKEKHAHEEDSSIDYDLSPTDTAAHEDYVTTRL
# [12] = target: T4, Replicative DNA helicase DnaB (Mycobacterium tuberculosis, UniProt P9WMR3); test: DnaB intein splicing inhibitors, dose response, biochemical, cell-free fluorescence (AID 449749); type: functional
# T4 sequence (P9WMR3 whole entry): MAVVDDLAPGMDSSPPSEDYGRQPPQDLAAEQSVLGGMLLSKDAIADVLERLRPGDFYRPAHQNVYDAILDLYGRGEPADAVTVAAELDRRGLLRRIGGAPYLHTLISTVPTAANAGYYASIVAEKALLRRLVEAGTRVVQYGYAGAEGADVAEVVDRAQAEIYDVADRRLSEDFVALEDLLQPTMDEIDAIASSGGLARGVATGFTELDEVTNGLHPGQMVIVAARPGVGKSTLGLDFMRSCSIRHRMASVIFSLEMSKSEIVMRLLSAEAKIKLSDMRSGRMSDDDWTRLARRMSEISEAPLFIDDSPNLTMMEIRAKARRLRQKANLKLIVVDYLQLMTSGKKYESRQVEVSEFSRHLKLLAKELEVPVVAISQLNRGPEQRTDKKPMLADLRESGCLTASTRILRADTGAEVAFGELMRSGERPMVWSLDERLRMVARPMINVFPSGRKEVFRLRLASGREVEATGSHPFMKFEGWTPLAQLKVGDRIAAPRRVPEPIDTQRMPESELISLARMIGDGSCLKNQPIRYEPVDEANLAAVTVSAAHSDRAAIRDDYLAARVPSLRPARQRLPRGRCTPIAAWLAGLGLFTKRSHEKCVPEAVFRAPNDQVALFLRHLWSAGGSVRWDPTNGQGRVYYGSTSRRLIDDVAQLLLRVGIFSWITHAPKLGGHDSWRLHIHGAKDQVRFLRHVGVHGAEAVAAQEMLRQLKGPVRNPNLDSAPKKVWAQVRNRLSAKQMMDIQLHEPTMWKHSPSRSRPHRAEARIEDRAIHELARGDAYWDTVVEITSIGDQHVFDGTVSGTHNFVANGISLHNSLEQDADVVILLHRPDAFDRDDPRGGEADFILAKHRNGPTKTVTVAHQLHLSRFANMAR
# Protein RecA = target: T5, Protein RecA (Mycobacterium tuberculosis, UniProt P9WHJ3); test: Fluorescence Cell-Free Homogeneous Dose Retest to Identify Inhibitors of RecA-Intein Splicing Activity. [Related pubchem assays (depositor defined):AID2097, AID2223, AID489010, AID492950]; type: functional
# T5 sequence (P9WHJ3 whole entry): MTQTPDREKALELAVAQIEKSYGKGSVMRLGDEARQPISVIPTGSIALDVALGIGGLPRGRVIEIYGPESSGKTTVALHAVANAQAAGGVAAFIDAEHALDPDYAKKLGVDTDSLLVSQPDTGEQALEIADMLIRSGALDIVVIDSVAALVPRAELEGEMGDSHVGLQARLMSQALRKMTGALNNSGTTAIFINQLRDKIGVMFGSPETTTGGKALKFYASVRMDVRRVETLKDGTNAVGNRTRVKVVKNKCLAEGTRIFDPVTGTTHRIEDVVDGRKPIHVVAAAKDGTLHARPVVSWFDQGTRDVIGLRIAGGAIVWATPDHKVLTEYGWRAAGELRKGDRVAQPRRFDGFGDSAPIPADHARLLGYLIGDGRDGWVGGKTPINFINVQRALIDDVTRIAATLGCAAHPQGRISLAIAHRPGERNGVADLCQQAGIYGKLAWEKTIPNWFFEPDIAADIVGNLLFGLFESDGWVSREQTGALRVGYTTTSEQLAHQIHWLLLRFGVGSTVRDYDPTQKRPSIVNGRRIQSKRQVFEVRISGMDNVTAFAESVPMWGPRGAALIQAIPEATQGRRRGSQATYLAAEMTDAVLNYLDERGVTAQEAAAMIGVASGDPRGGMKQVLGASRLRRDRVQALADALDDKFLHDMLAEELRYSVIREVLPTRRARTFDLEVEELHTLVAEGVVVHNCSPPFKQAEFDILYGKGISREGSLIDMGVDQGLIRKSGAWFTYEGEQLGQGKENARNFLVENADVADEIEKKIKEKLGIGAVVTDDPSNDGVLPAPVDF
# Cytochrome P450 2C19 = Cytochrome P450 2C19 (Homo sapiens, UniProt P33261); test: Cytochrome panel assay with activity outcomes. Panel member name: p450-cyp2c19 Compounds with AC50 equal or less than 10 uM are considered active; type: functional; settings: read-out: AC50
# Chain of Cytochrome P450 2C19 (P33261 whole entry): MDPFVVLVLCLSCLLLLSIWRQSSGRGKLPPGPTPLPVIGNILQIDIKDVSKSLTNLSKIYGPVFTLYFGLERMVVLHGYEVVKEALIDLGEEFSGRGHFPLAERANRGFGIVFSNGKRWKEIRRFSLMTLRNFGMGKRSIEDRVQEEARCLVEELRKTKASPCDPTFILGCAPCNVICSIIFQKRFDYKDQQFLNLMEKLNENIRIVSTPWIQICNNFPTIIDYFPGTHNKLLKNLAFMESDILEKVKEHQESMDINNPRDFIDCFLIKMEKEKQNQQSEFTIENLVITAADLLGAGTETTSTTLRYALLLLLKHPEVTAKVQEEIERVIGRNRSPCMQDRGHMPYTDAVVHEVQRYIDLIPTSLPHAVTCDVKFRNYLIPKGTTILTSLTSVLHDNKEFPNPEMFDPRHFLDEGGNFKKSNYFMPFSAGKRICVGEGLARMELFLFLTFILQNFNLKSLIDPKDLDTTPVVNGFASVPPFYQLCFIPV
# [13] = target: T6, Ubiquitin-conjugating enzyme E2 N (Homo sapiens, UniProt P61088); type: functional;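 also: Dose-response confirmation in a TR-FRET assay detecting UBC13-driven polyubiquitin chain formation, inhibition measured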
# T6 sequence (P61088 whole entry): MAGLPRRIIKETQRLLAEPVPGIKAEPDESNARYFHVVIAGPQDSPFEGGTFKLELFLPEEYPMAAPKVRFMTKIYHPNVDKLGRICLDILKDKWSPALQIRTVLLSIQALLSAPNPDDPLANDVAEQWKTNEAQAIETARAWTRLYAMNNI
# [14] = target: Heat shock protein HSP 90-alpha (Homo sapiens, UniProt P07900); type: functional, organism-based
# [15] = Fluorescence-based cell-based high throughput dose response assay for inhibitors of the interaction of nucleotide-binding oligomerization domain containing 2 (NOD2) and the receptor-interacting serine-threonine kinase 2 (RIPK2).; type: functional, Homo sapiens
structure (smiles),measurement,setting,value
Cn1nnnc1Sc1ncnc2scc(-c3ccc(C(F)(F)F)cc3)c12,AC50,[1],2.52 µM (active)
same,AC50,[2],8.47 µM (active)
same,CC50,[3],6.16 µM (active)
same,AC50,[4],17.7 µM (active)
same,AC50,[5],8.08 µM (active)
same,AC50,[6],14.8 µM (active)
same,AC50,[7],7.67 µM (active)
CCCCN(CC)CCCNC(=O)c1cc2c(-c3ccc(OC)c(OC)c3)nn(C)c2s1,AC50,[8],3.21 µM (active)
same,AC50,[9],9.31 µM (active)
NC(=O)CN1CCN(CCN2C(=O)c3cccc4cccc(c34)C2=O)CC1,AC50,[8],12.1 µM (active)
same,AC50,[9],13.3 µM (active)
CCn1cc(C(=O)NCCCN(C)C)c(=O)c2cc(F)c(N3CCN(C)CC3)cc21,EC50,[10],> 50 µM (active)
Cc1ccc(NC(=O)c2ccc(Oc3ncccn3)cc2)cc1,AC50,Escherichia coli,37.9 µM (active)
C[C@@H](C(=O)NC1CCCC1)N1C(=O)N2CCc3c([nH]c4ccccc34)[C@@]2(C)C1=O,EC50,[10],> 50 µM (active)
COc1ccccc1-n1nc(C(=O)Nc2ccc3c(c2)OCO3)c2ccccc2c1=O,AC50,Escherichia coli,74.7 µM (active)
CC1CC(C)CN(CCCNC(=O)COc2cc(=O)n(C)c3ccccc23)C1 (stereo not given),EC50,[11],0.749 µM (active)
CC(=O)NCCn1c(SCc2ccccc2C)nc2ccccc2c1=O,EC50,[10],> 50 µM (active)
same,AC50,[12],28.4 µM (active)
same,EC50,Protein RecA,83.2 µM (active)
CCN(CC)CCNC(=O)c1cc2c(=O)n(C)c3ccccc3c2n1C,AC50,[9],18.3 µM (active)
O=C(O)C1C2C=CC(C2)C1C(=O)N1CCN(C/C=C/c2ccccc2)CC1 (stereo not given),AC50,Cytochrome P450 2C19,14.1 µM (inconclusive)
same,EC50,[11],5.96 µM (active)
COc1ccc(C[C@@H]2CN3C(=NC[C@@H]3Cc3ccc(O)cc3)N2C[C@H](C)NC(=O)CCC2CCCCC2)cc1,IC50,[13],> 20 µM (inactive)
O=C1NC(=O)N(CCc2ccccc2)C(=O)/C1=C/NCc1ccc2c(c1)OCO2,AC50,Escherichia coli,43.4 µM (active)
CCC(C(=O)NC1CCCC1)N(C(=O)c1snc(C(N)=O)c1N)c1ccc(OC)cc1 (stereo not given),IC50,[13],> 20 µM (inactive)
CCOc1ncccc1C(=O)N(CC)CC(=O)Nc1ccc(NC(C)=O)cc1,AC50,Escherichia coli,96.8 µM (active)
OC(Cn1cncn1)(c1ccccc1)c1ccccc1,AC50,[14],1.43 µM (active)
CC1CCCCN1S(=O)(=O)c1ccc(NC(=O)c2ccco2)cc1 (stereo not given),AC50,Escherichia coli,32.1 µM (active)
Cc1cc(C)c2nc(C)cc(Nc3ccc(C(=O)NCCO)cc3)c2c1,AC50,[9],32.6 µM (active)
CC(=O)OC1CC2OC3C=C(C)CCC3(C)C1(C)C21CO1 (stereo not given),IC50,[15],49.8 µM (inactive)
